Laboratory results published in publication PMC10006169, “A phase I trial of LXS196, a protein kinase C (PKC) inhibitor, for metastatic uveal melanoma” (British Journal of Cancer, 2023).

System: patients with MUM
Assay: Adverse events regardless of study drug relationship
Type: in vivo, human
Method: Routine safety assessments, including laboratory assessments, physical examinations, vital signs and electrocardiograms (ECGs), were conducted at regular intervals throughout the study and more frequently as needed following patient assessment by the treating physician. Adverse events (AEs) were assessed continuously according to the National Cancer Institute Common Terminology Criteria for Adverse Events (NCI-CTCAE) v4.03.

Compound: CC1(N)CCN(c2cccnc2NC(=O)c2nc(-c3ncccc3C(F)(F)F)cnc2N)CC1 [LXS196]
- ALT increased, all grades (300 mg BID (RDE)): 5 (27.8) n (%)
- ALT increased, grade ≥3 (300 mg BID (RDE)): 1 (5.6) n (%)
- AST increased, all grades (300 mg BID (RDE)): 4 (22.2) n (%)
- AST increased, grade ≥3 (300 mg BID (RDE)): 2 (11.1) n (%)
- Abdominal pain upper, all grades (300 mg BID (RDE)): 3 (16.7) n (%)
- Abdominal pain upper, grade ≥3 (300 mg BID (RDE)): 0 n (%)
- Asthenia, all grades (300 mg BID (RDE)): 4 (22.2) n (%)
- Asthenia, grade ≥3 (300 mg BID (RDE)): 0 n (%)
- Blood creatinine increased, all grades (300 mg BID (RDE)): 2 (11.1) n (%)
- Blood creatinine increased, grade ≥3 (300 mg BID (RDE)): 0 n (%)
- Constipation, all grades (300 mg BID (RDE)): 4 (22.2) n (%)
- Constipation, grade ≥3 (300 mg BID (RDE)): 0 n (%)
- Decreased appetite, all grades (300 mg BID (RDE)): 2 (11.1) n (%)
- Decreased appetite, grade ≥3 (300 mg BID (RDE)): 0 n (%)
- Dermatitis acneiform, all grades (300 mg BID (RDE)): 3 (16.7) n (%)
- Dermatitis acneiform, grade ≥3 (300 mg BID (RDE)): 0 n (%)
- Diarrhoea, all grades (300 mg BID (RDE)): 11 (61.1) n (%)
- Diarrhoea, grade ≥3 (300 mg BID (RDE)): 1 (5.6) n (%)
- Dry skin, all grades (300 mg BID (RDE)): 4 (22.2) n (%)
- Dry skin, grade ≥3 (300 mg BID (RDE)): 0 n (%)
- Fatigue, all grades (300 mg BID (RDE)): 6 (33.3) n (%)
- Fatigue, grade ≥3 (300 mg BID (RDE)): 0 n (%)
- Hypotension, all grades (300 mg BID (RDE)): 3 (16.7) n (%)
- Hypotension, grade ≥3 (300 mg BID (RDE)): 0 n (%)
- Nasopharyngitis, all grades (300 mg BID (RDE)): 2 (11.1) n (%)
- Nasopharyngitis, grade ≥3 (300 mg BID (RDE)): 0 n (%)
- Nausea, all grades (300 mg BID (RDE)): 15 (83.3) n (%)
- Nausea, grade ≥3 (300 mg BID (RDE)): 0 n (%)
- Neutropenia, all grades (300 mg BID (RDE)): 0 n (%)
- Neutropenia, grade ≥3 (300 mg BID (RDE)): 0 n (%)
- Oedema peripheral, all grades (300 mg BID (RDE)): 5 (27.8) n (%)
- Oedema peripheral, grade ≥3 (300 mg BID (RDE)): 1 (5.6) n (%)
- Patients with ≥1 AE, all grades (300 mg BID (RDE)): 18 (100) n (%)
- Patients with ≥1 AE, grade ≥3 (300 mg BID (RDE)): 8 (44.4) n (%)
- Rash, all grades (300 mg BID (RDE)): 5 (27.8) n (%)
- Rash, grade ≥3 (300 mg BID (RDE)): 0 n (%)
- Vomiting, all grades (300 mg BID (RDE)): 8 (44.4) n (%)
- Vomiting, grade ≥3 (300 mg BID (RDE)): 0 n (%)
- ALT increased, all grades (300 mg QD): 4 (26.7) n (%)
- ALT increased, grade ≥3 (300 mg QD): 1 (6.7) n (%)
- AST increased, all grades (300 mg QD): 1 (6.7) n (%)
- AST increased, grade ≥3 (300 mg QD): 1 (6.7) n (%)
- Abdominal pain upper, all grades (300 mg QD): 2 (13.3) n (%)
- Abdominal pain upper, grade ≥3 (300 mg QD): 0 n (%)
- Asthenia, all grades (300 mg QD): 3 (20.0) n (%)
- Asthenia, grade ≥3 (300 mg QD): 0 n (%)
- Blood creatinine increased, all grades (300 mg QD): 2 (13.3) n (%)
- Blood creatinine increased, grade ≥3 (300 mg QD): 0 n (%)
- Constipation, all grades (300 mg QD): 4 (26.7) n (%)
- Constipation, grade ≥3 (300 mg QD): 0 n (%)
- Decreased appetite, all grades (300 mg QD): 0 n (%)
- Decreased appetite, grade ≥3 (300 mg QD): 0 n (%)
- Dermatitis acneiform, all grades (300 mg QD): 1 (6.7) n (%)
- Dermatitis acneiform, grade ≥3 (300 mg QD): 0 n (%)
- Diarrhoea, all grades (300 mg QD): 6 (40.0) n (%)
- Diarrhoea, grade ≥3 (300 mg QD): 0 n (%)
- Dry skin, all grades (300 mg QD): 1 (6.7) n (%)
- Dry skin, grade ≥3 (300 mg QD): 0 n (%)
- Fatigue, all grades (300 mg QD): 8 (53.3) n (%)
- Fatigue, grade ≥3 (300 mg QD): 0 n (%)
- Hypotension, all grades (300 mg QD): 1 (6.7) n (%)
- Hypotension, grade ≥3 (300 mg QD): 0 n (%)
- Nasopharyngitis, all grades (300 mg QD): 3 (20.0) n (%)
- Nasopharyngitis, grade ≥3 (300 mg QD): 0 n (%)
- Nausea, all grades (300 mg QD): 10 (66.7) n (%)
- Nausea, grade ≥3 (300 mg QD): 0 n (%)
- Neutropenia, all grades (300 mg QD): 3 (20.0) n (%)
- Neutropenia, grade ≥3 (300 mg QD): 1 (6.7) n (%)
- Oedema peripheral, all grades (300 mg QD): 2 (13.3) n (%)
- Oedema peripheral, grade ≥3 (300 mg QD): 0 n (%)
- Patients with ≥1 AE, all grades (300 mg QD): 14 (93.3) n (%)
- Patients with ≥1 AE, grade ≥3 (300 mg QD): 4 (26.7) n (%)
- Rash, all grades (300 mg QD): 4 (26.7) n (%)
- Rash, grade ≥3 (300 mg QD): 0 n (%)
- Vomiting, all grades (300 mg QD): 6 (40.0) n (%)
- Vomiting, grade ≥3 (300 mg QD): 0 n (%)
- ALT increased, all grades (400 mg BID): 3 (50.0) n (%)
- ALT increased, grade ≥3 (400 mg BID): 1 (16.7) n (%)
- AST increased, all grades (400 mg BID): 3 (50.0) n (%)
- AST increased, grade ≥3 (400 mg BID): 1 (16.7) n (%)
- Abdominal pain upper, all grades (400 mg BID): 0 n (%)
- Abdominal pain upper, grade ≥3 (400 mg BID): 0 n (%)
- Asthenia, all grades (400 mg BID): 2 (33.3) n (%)
- Asthenia, grade ≥3 (400 mg BID): 0 n (%)
- Blood creatinine increased, all grades (400 mg BID): 0 n (%)
- Blood creatinine increased, grade ≥3 (400 mg BID): 0 n (%)
- Constipation, all grades (400 mg BID): 2 (33.3) n (%)
- Constipation, grade ≥3 (400 mg BID): 0 n (%)
- Decreased appetite, all grades (400 mg BID): 2 (33.3) n (%)
- Decreased appetite, grade ≥3 (400 mg BID): 0 n (%)
- Dermatitis acneiform, all grades (400 mg BID): 1 (16.7) n (%)
- Dermatitis acneiform, grade ≥3 (400 mg BID): 0 n (%)
- Diarrhoea, all grades (400 mg BID): 3 (50.0) n (%)
- Diarrhoea, grade ≥3 (400 mg BID): 0 n (%)
- Dry skin, all grades (400 mg BID): 1 (16.7) n (%)
- Dry skin, grade ≥3 (400 mg BID): 0 n (%)
- Fatigue, all grades (400 mg BID): 1 (16.7) n (%)
- Fatigue, grade ≥3 (400 mg BID): 0 n (%)
- Hypotension, all grades (400 mg BID): 4 (66.7) n (%)
- Hypotension, grade ≥3 (400 mg BID): 1 (16.7) n (%)
- Nasopharyngitis, all grades (400 mg BID): 0 n (%)
- Nasopharyngitis, grade ≥3 (400 mg BID): 0 n (%)
- Nausea, all grades (400 mg BID): 3 (50.0) n (%)
- Nausea, grade ≥3 (400 mg BID): 0 n (%)
- Neutropenia, all grades (400 mg BID): 1 (16.7) n (%)
- Neutropenia, grade ≥3 (400 mg BID): 0 n (%)
- Oedema peripheral, all grades (400 mg BID): 1 (16.7) n (%)
- Oedema peripheral, grade ≥3 (400 mg BID): 0 n (%)
- Patients with ≥1 AE, all grades (400 mg BID): 6 (100) n (%)
- Patients with ≥1 AE, grade ≥3 (400 mg BID): 4 (66.7) n (%)
- Rash, all grades (400 mg BID): 1 (16.7) n (%)
- Rash, grade ≥3 (400 mg BID): 0 n (%)
- Vomiting, all grades (400 mg BID): 3 (50.0) n (%)
- Vomiting, grade ≥3 (400 mg BID): 0 n (%)
